# BindingDB's records for doi:10.7270/Q2TX3CTT (Broad Institute, 2010)
# pEC50: −log10 of the molar value.
# Molecular target: Glycogen synthase kinase-3 beta (Homo sapiens, UniProt P49841)
# Test: concentration-response blocking of human GSK3B – biochemical, luminescence, cell-free homogeneous, retest, dose response (AID 434954)
# Glycogen synthase kinase-3 beta, sequence (P49841 whole entry): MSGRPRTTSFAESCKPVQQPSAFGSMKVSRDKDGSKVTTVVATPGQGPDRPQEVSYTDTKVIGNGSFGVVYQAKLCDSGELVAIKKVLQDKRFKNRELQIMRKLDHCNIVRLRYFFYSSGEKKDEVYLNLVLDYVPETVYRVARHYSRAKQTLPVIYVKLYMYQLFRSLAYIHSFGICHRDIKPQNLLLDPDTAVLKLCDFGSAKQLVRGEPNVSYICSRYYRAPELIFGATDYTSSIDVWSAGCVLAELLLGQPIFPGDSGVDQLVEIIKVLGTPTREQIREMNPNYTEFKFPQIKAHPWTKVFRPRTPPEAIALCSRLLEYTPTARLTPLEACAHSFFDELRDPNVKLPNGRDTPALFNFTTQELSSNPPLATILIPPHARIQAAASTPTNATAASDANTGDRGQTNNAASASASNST
row,Compound,pEC50
1,"CC(C)=CCc1c(O)cc(O)c2c(=O)c3c(CC=C(C)C)c(O)ccc3oc12 [2,6,8-trihydroxy-1,5-bis(3-methylbut-2-enyl)xanthen-9-one]",< 3.52
2,CCOc1cc(C(=O)OCC(=O)Nc2ccc(Cl)cn2)ccc1OCC(=O)N1CCOCC1 [MLS000334350],4.21
3,C=CCNC(=O)c1ccc(OC)cc1 [4-methoxy-N-prop-2-enylbenzamide],< 3.52
4,CCN1CCN(c2cc(C)c3cc(NC(=O)c4cccc(OC)c4)ccc3n2)CC1 [N-[2-(4-ethylpiperazin-1-yl)-4-methyl-quinolin-6-yl]-3-methoxy-benzamide],< 3.52
5,CC(=O)Nc1ccccc1C(=O)OCc1ccc(C(=O)c2ccccc2)cc1,< 3.52
6,Nc1nc(NCCO)nc(NC2CCCCC2)c1[N+](=O)[O-] [2-[[4-amino-6-(cyclohexylamino)-5-nitro-2-pyrimidinyl]amino]ethanol],5.87
7,"O=C(Nc1cccc2c1C(=O)NC2=O)c1ccccc1[N+](=O)[O-] [N-(1,3-dioxo-4-isoindolyl)-2-nitrobenzamide]",< 3.52
8,"Cc1ccccc1CSc1nc2n(n1)C(c1cccs1)C1C(=O)CCCC1=N2 (stereo not given) [2-[(2-methylphenyl)methylsulfanyl]-9-thiophen-2-yl-5,6,7,9-tetrahydro-1H-[1,2,4]triazolo[5,1-b]quinazolin-8-one]",< 3.52
9,"O=c1oc2cc(O)ccc2c2c1CCCC2 [3-hydroxy-7,8,9,10-tetrahydro-6H-benzo[c]chromen-6-one]",< 3.52
10,O=c1c2c3c(sc2n2c(S)nnc2n1-c1ccccc1)CCC3 [MLS000779668],4.47
11,CCN(CC)Cc1c(O)ccc2c(=O)c(-c3ccc4c(c3)OCCO4)coc12 [MLS000552107],< 3.52
12,COc1ccccc1-c1cc2ccccc2[nH]1 [2-(1H-indol-2-yl)phenyl methyl ether],< 3.52
13,COc1cccc(Nc2nc(-c3ccccc3)nc3ccccc23)c1,< 3.52
14,O=C(O)c1ccc2c3n(nc2c1)-c1ccc(Cl)cc1CO3 [SMR000673552],4.26
15,"CCCN(CCC)Cc1c(C(=O)NN=Cc2ccncc2)nnn1-c1nonc1N [1-(4-amino-1,2,5-oxadiazol-3-yl)-5-[(dipropylamino)methyl]-N-(pyridin-4-ylmethylideneamino)triazole-4-carboxamide]",6.06
16,CCCCc1cc(=O)oc2cc(C)cc(O)c12,< 3.52
17,"CC1(C)CC(=O)C=C(Nc2cccc(C(F)(F)F)c2)C1 [5,5-dimethyl-3-[[3-(trifluoromethyl)phenyl]amino]cyclohex-2-en-1-one]",< 3.52
18,Cc1ccc(C(=O)Nc2ncc([N+](=O)[O-])s2)cc1,< 3.52
19,CC(N=O)c1ncc(C(F)(F)F)cc1Cl (stereo not given) [MLS000763457],< 3.52
20,"COc1c(CC=C(C)C)cc(C2CC(=O)c3c(O)cc(O)cc3O2)c(CC=C(C)C)c1O (stereo not given) [5,7-dihydroxy-2-[3-hydroxy-4-methoxy-2,5-bis(3-methylbut-2-enyl)phenyl]-2,3-dihydrochromen-4-one]",< 3.52
21,CCOc1ccc2ncc(C(=O)c3ccc(OC)cc3)c(N3CCN(CC)CC3)c2c1 [[6-ethoxy-4-(4-ethylpiperazin-1-yl)quinolin-3-yl](4-methoxyphenyl)methanone],< 3.52
22,CC(C)=CCc1c(O)cc(O)c2c1O[C@H](c1ccc(O)cc1)CC2=O,< 3.52
23,O=c1cc(-c2ccccc2Cl)oc2ccc([N+](=O)[O-])c(O)c12 [2-(2-chlorophenyl)-5-hydroxy-6-nitrochromen-4-one],< 3.52
24,COc1cccc(CN=Nc2cc(Cl)nc(C)n2)c1O [SMR000274053],< 3.52

row,Compound,pEC50
1,O=NCc1ccc(Sc2ccccc2)c([N+](=O)[O-])c1 [N-[(3-nitro-4-phenylsulfanylphenyl)methylidene]hydroxylamine],4.41
2,COCCn1c(SCC(=O)NC(=O)NCc2ccccc2)nc2ccccc21 [MLS000053169],< 3.52
3,"Cc1cccc(Nc2nc(NCC3CCCO3)nc(N)c2[N+](=O)[O-])c1 (stereo not given) [5-Nitro-N-(tetrahydro-furan-2-ylmethyl)-N'-m-tolyl-pyrimidine-2,4,6-triamine]",5.39
4,"Cc1cc(C)c(C#N)c(SCC(=O)c2ccc(Cl)cc2Cl)n1 [2-[2-(2,4-dichlorophenyl)-2-oxidanylidene-ethyl]sulfanyl-4,6-dimethyl-pyridine-3-carbonitrile]",< 3.52
5,CCOC(=O)c1cnc2ccc(OC)cc2c1NCCc1ccc(OC)c(OC)c1,< 3.52
6,CC(C)CCNc1nc(N)c([N+](=O)[O-])c(NCC2CCCO2)n1 (stereo not given) [SMR000220274],5.84
7,Cc1onc(-c2ccccc2Cl)c1C(=O)NNC(=O)c1ccc(F)cc1 [MLS001223650],< 3.52
8,O=C1NC(=Nc2ccccc2)SC1=Cc1ccccc1 [5-Benzylidene-2-phenylimino-thiazolidin-4-one],< 3.52
9,COc1ccc(CNCC2COc3ccccc3O2)cc1 (stereo not given) [SMR000588087],< 3.52
10,"O=C(CCc1ccccc1)Nc1ccc2c(c1)OCCO2 [N-(2,3-dihydro-1,4-benzodioxin-6-yl)-3-phenyl-propanamide]",< 3.52
11,"COc1cccc(-c2c(C(=O)NN=C(C)c3ccncc3)nnn2-c2nonc2N)c1 [1-(4-amino-1,2,5-oxadiazol-3-yl)-5-(3-methoxyphenyl)-N-(1-pyridin-4-ylethylideneamino)-4-triazolecarboxamide]",4.72
12,"Cc1cc(NC(=O)COc2cccnc2[N+](=O)[O-])no1 [N-(5-methyl-1,2-oxazol-3-yl)-2-(2-nitropyridin-3-yl)oxyacetamide]",< 3.52
13,N#Cc1c(-c2ccccc2)nc(-c2cccnc2)[nH]c1=O [MLS001165441],< 3.52
14,O=C(O)CCn1cc(/C=C\C(=O)c2ccc(Cl)cc2)c(-c2cccc(Br)c2)n1 [3-[3-(3-bromophenyl)-4-[(Z)-3-(4-chlorophenyl)-3-oxoprop-1-enyl]pyrazol-1-yl]propanoic acid],< 3.52
15,Nc1ccc(O)c2c(=O)cc(-c3ccccc3Cl)oc12 [MLS000518334],4.67
16,Nc1ccc(C(=O)Nc2ccccc2C(=O)O)cc1,< 3.52
17,"COc1ccc(NC(=O)c2sc(S)nc2N)cc1 [4-Amino-2-thioxo-2,3-dihydro-thiazole-5-carboxylic acid (4-methoxy-phenyl)-amide]",< 3.52
18,CC(=O)Nc1c(-c2ccccc2)nc2ccc(Cl)cn12 [MLS001077169],< 3.52
19,CCN1CCc2c(C#N)c(N3CCCCC3)nc(N3CCOCC3)c2C1 [MLS000071254],4.79
20,CCOC(=O)C1C(=CN2CCSCC2)NC(=O)NC1c1cc(C)ccc1C (stereo not given) [MLS000052412],< 3.52
21,Cc1cccn2c(=O)nc(SCC(=O)NC3CCCCC3)nc12,< 3.52
22,C=CCn1c(SCC(=O)Nc2ccc(Cl)cn2)nnc1C1CC1,4.40
23,"COc1ccc(-c2nnc3ccc(SCC(N)=O)nn23)cc1OC [2-[[3-(3,4-dimethoxyphenyl)-[1,2,4]triazolo[4,3-b]pyridazin-6-yl]sulfanyl]ethanamide]",< 3.52
24,CCn1c(SCC(=O)Nc2ccc(N(C)C)cc2)nnc1C1CC1 [SMR000601384],< 3.52

row,Compound,pEC50
1,Cc1ccc(C(=O)c2coc3ccc(O)c(CN(C)C)c23)cc1 [(4-Dimethylaminomethyl-5-hydroxy-benzofuran-3-yl)-p-tolyl-methanone],< 3.52
2,Cc1[nH]nc2c1C(c1cccs1)C1C(=O)CCCC1=N2 (stereo not given) [MLS001003570],4.97
3,COCCn1c(SCC(=O)Nc2ccccc2OC)nc2ccccc21 [SMR000377677],< 3.52
4,O=C(NNC(=O)C1[C@H]2CCCC[C@@H]12)c1ccc(=O)oc1 (stereo not given in full) [MLS000768334],< 3.52
5,Cc1ccc(N2CSC3=C(C#N)C(c4cccs4)CC(=O)N3C2)cc1 (stereo not given) [MLS000522486],< 3.52
6,c1ccc(-c2nc(NCCCn3ccnc3)c3ccccc3n2)cc1 [MLS001007021],4.47
7,CC1CCCCC1NC(=O)CN(C)S(=O)(=O)c1cccc2cccnc12 (stereo not given) [N-(2-methylcyclohexyl)-2-[methyl(quinolin-8-ylsulfonyl)amino]acetamide],< 3.52
8,"COCCCNc1nc(N)c([N+](=O)[O-])c(Nc2cc(OC)ccc2OC)n1 [N4-(2,5-dimethoxyphenyl)-N2-(3-methoxypropyl)-5-nitro-pyrimidine-2,4,6-triamine]",6.13
9,"CCc1n[nH]c(SCC(=O)Nc2ccc(Br)cn2)n1 [N-(5-bromanylpyridin-2-yl)-2-[(5-ethyl-1H-1,2,4-triazol-3-yl)sulfanyl]ethanamide]",4.76
10,Nc1ncc(-c2ccccc2)c(-c2ccc(O)cc2O)n1,5.11
11,COc1ccc(N(C(=O)c2ccncc2)S(=O)(=O)c2cccc([N+](=O)[O-])c2)cc1 [SMR000668685],< 3.52
12,"CCC(C)Nc1nc(N)c([N+](=O)[O-])c(Nc2cc(OC)ccc2OC)n1 (stereo not given) [N2-butan-2-yl-N4-(2,5-dimethoxyphenyl)-5-nitro-pyrimidine-2,4,6-triamine]",6.27
13,CCCn1nc(NC(=O)c2cccs2)c2cc3cc(C)ccc3nc21 [SMR000436650],< 3.52
14,O=C(CCCC1=Nc2ccccc2S(=O)(=O)N1)Nc1ccccc1 [MLS001028511],< 3.52
15,N#CC(C#N)c1nc2ccccc2nc1-[n+]1cccc([N-]C(=O)c2ccccc2)c1,< 3.52
16,CC(=O)N1CCC(=O)Nc2ccc([N+](=O)[O-])cc21 [MLS000728217],< 3.52
17,"O=S(=O)(c1ccc(Br)cc1)N1CCN(c2cc(-c3ccccc3)nc3ncnn23)CC1 [7-[4-(4-bromophenyl)sulfonyl-1-piperazinyl]-5-phenyl-[1,2,4]triazolo[1,5-a]pyrimidine]",< 3.52
18,O=NCc1cn(-c2ccccc2)nc1-c1cccnc1 [N-[(1-phenyl-3-pyridin-3-ylpyrazol-4-yl)methylidene]hydroxylamine],5.19
19,Cc1ccc(-c2nn(-c3ccccc3)cc2CNCc2ccccc2)cc1 [MLS000672046],< 3.52
20,CCOC(=O)c1sc2c(c1C)C(c1cccs1)C1C(=O)CCCC1=N2 (stereo not given) [MLS000082170],< 3.52
21,COc1cccc(Nc2ncc(C#N)c(N)n2)c1 [MLS000858965],4.84
22,"Clc1ccc(CSc2nnc(-c3ccncc3)o2)c(Cl)c1 [2-[(2,4-dichlorobenzyl)thio]-5-(4-pyridyl)-1,3,4-oxadiazole]",5.20
